Assay results published in ChEMBL document CHEMBL1156829 (Proc Natl Acad Sci U S A, 2008).
Bridge positions count the residues as written; N and C are the ends. Square brackets hold non-standard residues; d marks the D form. Peptide text beside a SMILES is read from it.

What was measured:
[1] = tested on: Plasmodium falciparum; assay: NOVARTIS: Inhibition of Plasmodium falciparum 3D7 (drug-susceptible) proliferation in erythrocyte-based infection assay; type: functional, organism-based; conditions: Plasmodium falciparum, 3D7
[2] = tested on: Plasmodium falciparum; assay: NOVARTIS: Inhibition of Plasmodium falciparum W2 (drug-resistant) proliferation in erythrocyte-based infection assay; type: functional, organism-based; conditions: Plasmodium falciparum, W2; read-out: EC50
[3] = NOVARTIS: Cytotoxicity against human hepatocellular carcinoma cell line (Huh7); type: toxicity, cell-based, Huh-7; conditions: Huh7 cells (hepatocellular carcinoma cell line)

Structure (SMILES) | EC50 [1] [nM] | EC50 [2] [nM] | CC50 [3] [nM]
c1ccc2cc3c(Nc4ccc(N5CCCCC5)cc4)ccnc3cc2c1 | 743 | 1220 | 67700
CCCCc1ccc(C(=O)N(CC(=O)Nc2cc(C(C)(C)C)nn2-c2ccc(Cl)cc2)C(C)C)cc1 | > 1380 | > 832 | > 10000
Fc1ccc(-c2c[n+](-c3ccccc3)c3n2CCS3)cc1 | 764 | 1070 | > 100000
CCOC(=O)C1=C(CC)NC2=C(C(=O)CC(C)(C)C2)C1c1ccccc1F (stereo not given) | 459 | 151 | > 100000
FC(F)(F)c1cccc(-c2cc(NCCCn3ccnc3)nc(-c3ccncc3)n2)c1 | 204 | 186 | > 7720
CC1=NOC(=O)/C1=C/c1ccc(-c2ccc([N+](=O)[O-])cc2)o1 | > 1250 | > 865 | > 10000
CNC(=O)c1ccc(NC(=O)Nc2ccc(C3=NCCCN3)cc2)cc1NC(=O)Nc1ccc(C2=NCCCN2)cc1 | 126 | 78.3 | > 10000
O=S(=O)(Nc1ccc(F)cc1)N1CCCCCC1 | > 12500 | 1360 | > 100000
Cc1ccc(NC(=O)c2ccc(NCCCN3CCC(C)CC3)c([N+](=O)[O-])c2)cc1F | 191 | 330 | > 100000
Cc1cnc(C)c(-c2ccc(O)c(CNCC3(N4CCCCC4)CCCCC3)c2)n1 | 326 | 39.8 | > 7780
c1ccc(C[C@H]2CN(c3ccc4ccccc4c3)CCN2CCNCC2CCCO2)cc1 (stereo not given in full) | 272 | 380 | 2540
COC(=O)C1=C(C)N(c2ccc(N(C)C)cc2)C(C)=C(C(=O)OC)C1c1ccc(Br)cc1 | > 1250 | > 1220 | > 10000
COc1ccc(C=C2SC(=N)N(c3ccc4c(c3)OCO4)C2=O)cc1OC | > 9750 | 2280 | > 100000
O=C1c2ccc(-c3nc(-c4ccccc4)[nH]c3-c3ccccc3)cc2-c2cc(-c3[nH]c(-c4ccccc4)nc3-c3ccccc3)ccc21 | 9190 | 8930 | > 100000
c1ccc(Cn2c(N=Nc3c(Nc4ccccc4)ccc4ccccc34)nc3ccccc32)cc1 | 2730 | 669 | 88000
Cc1ccc(NC(=O)c2nc[nH]c2C(=O)Nc2nc3ccccc3[nH]2)c(C)c1 | 7290 | > 12500 | > 100000
C/C=C/C(C(=O)NCCCC)N1C(=O)c2cc(NC(C)=O)ccc2NC(=O)[C@@H]1C (stereo not given in full) | 199 | 4.57 | 7590
CCCOC(=O)C1=C(C)NC2=C(C(=O)CC(c3ccc(OC)cc3)C2)C1c1ccc([N+](=O)[O-])cc1 (stereo not given) | 281 | 51.4 | > 100000
Cc1ccc[n+](C(C)C(=O)c2ccc(-c3ccccc3)cc2)c1 (stereo not given) | 1610 | 649 | > 100000
N#Cc1ccccc1Cn1nc(-c2cccnc2)oc1=O | > 12500 | 2380 | > 100000
COc1ccc(-c2ccc(C=NNC(=O)CNC(=O)c3ccc4c(c3)OCO4)o2)cc1Cl | > 375 | > 1250 | > 10000
CCOc1ccc(Nc2cc(C)nc(Nc3ccc(OCC)cc3)n2)cc1 | 104 | 124 | 9850

Structure (SMILES) | EC50 [1] [nM] | EC50 [2] [nM] | CC50 [3] [nM]
N#Cc1c(-c2ccccc2)cc(N2CCN(C3CCCCC3)CC2)n2c1nc1ccccc12 | 234 | 932 | > 100000
COc1ccc2[nH]c3c(c2c1)CCNC3c1ccc(OC)c(CSc2nnc(-c3ccccc3)o2)c1 (stereo not given) | 4050 | 1990 | 7420
CCCn1c(=O)c2[nH]c(C3CCCC3)nc2n(CCC)c1=O [1,3-DIPROPYL-8-CYCLOPENTYLXANTHINE [DPCPX]] | 764 | 346 | […]
COc1ccc(NC(=O)c2cc3cc(C4(O)CCN(Cc5cc6ccccc6[nH]5)CC4)ccc3o2)cc1 | 272 | 650 | 20500
Brc1ccc(Nc2nc(NCC3CCCO3)c3ccccc3n2)cc1 (stereo not given) | 468 | 349 | 9780
O=C(Cn1c2ccccc2c(=O)c2ccccc21)Nc1ccc([N+](=O)[O-])c(Br)c1 | 1110 | 632 | > 100000
Cc1cc(C)c2c(c1)c(-c1ccccc1)c(-c1ccccc1)n2CC(O)Cn1cnc(-c2ccccc2)c1-c1ccccc1 (stereo not given) | 1350 | 155 | > 100000
CCCCNc1cc(C)nc(NCc2ccccc2)n1 | 944 | 1020 | > 10000
CC(=O)Nc1c(C)cc(Cl)cc1Cl | 1450 | 661 | > 10000
CN(C)c1cc[n+](OC(=O)N2CCCCC2)cc1 | 133 | > 455 | > 10000
COc1ccc(C2CC3=NC(C)=C(C(=O)OC(C)C)C(c4ccccc4OC)C3=C(O)C2)cc1OC (stereo not given) | 91.9 | 39.8 | > 100000
CS(=O)(=O)Nc1cccc(-c2cnc(N)c(-c3ccc(C(=O)N4CCOCC4)cc3)n2)c1 | > 976 | > 1250 | > 10000
CN(C)CCNC(=O)c1cc2c(-c3ccc(Cl)cc3)nn(C)c2s1 | 339 | 422 | 64600
O=C(Nc1cccc(-c2nc3ccccc3[nH]2)c1)c1ccccc1[N+](=O)[O-] | > 1720 | > 772 | > 6000
c1ccc(CCNc2cccc3ccccc23)cc1 | 128 | < 7.52 | > 10000
O=C(Nc1ccc(-c2nnc(-c3ccccc3)o2)cc1)c1ccc(Br)cc1 | 750 | > 1250 | > 10000
O=C(C1CC1)N1CCc2cc(Br)cc(S(=O)(=O)N3CCCCC3)c21 | 8140 | 2640 | > 100000
CCOc1nc2c(c(=O)n(C)c(=O)n2C)n1Cc1cccc(Br)c1 | > 1620 | > 885 | > 10000
CCC(C)(C)C1CCc2sc3ncnc(NN=Cc4c(Cl)cccc4Cl)c3c2C1 (stereo not given) | 733 | 904 | > 100000
CC(C)C[C@@H]1NC(=O)[C@@H](CC(C)C)NC(=O)[C@H](C(C)C)NC(=O)[C@H]2CSSC[C@@H](NC1=O)C(=O)N2 (cyclo(L[dC][dC]V[dL]); disulfide 2-3) | > 1250 | 164 | > 10000
COC(=O)c1cn([C@@H]2C[C@@H](C(=O)NCc3cccc(C(F)(F)F)c3)N(C3CCN(Cc4ccccc4)CC3)C2)nn1 | 1520 | 1980 | > 100000
CN(C)c1nnc(/C(C#N)=C/c2cc(C(=O)c3cccc(Cl)c3)cn2C)o1 | 936 | > 1250 | > 10000

Structure (SMILES) | EC50 [1] [nM] | EC50 [2] [nM] | CC50 [3] [nM]
CCOc1ccc(N2C(=O)c3ccccc3NC2(C)C)cc1 | > 9970 | > 12500 | > 100000
COc1cc(C=C(C#N)c2nc3ccccc3[nH]2)ccc1OCc1ccccc1F | 1380 | 937 | > 100000
Cc1ccc(C(C(=O)NC2CCCCC2)N(C(=O)Cn2nnc3ccccc32)c2ccc(S(=O)(=O)NCC3CCCO3)cc2)o1 (stereo not given) | > 12300 | 1910 | > 100000
COCCCNC(=O)c1cc(NC(=O)CCCCl)ccc1N1CCc2ccccc2C1 | 331 | 30.4 | 1130
COc1ccc(S(=O)(=O)N2CCC(c3nnc(-c4ccccc4OC)o3)CC2)cc1 | 2300 | 1100 | > 100000
CCCCCCN(C(=O)c1ccc2ccccc2c1)C(CC)c1nc2ccccc2c(=O)n1-c1cccc(Cl)c1 (stereo not given) | > 1250 | > 1130 | > 10000
COC(=O)C1=C(C(=O)OC)SC(=C2C(=S)C(C)(C)N(C(=O)c3ccc([N+](=O)[O-])cc3)c3ccc(C)cc32)S1 | > 371 | > 1150 | > 10000
Cc1ccn2c(NC(C)(C)CC(C)(C)C)c(-c3ccccc3OC(=O)c3ccc(F)cc3)nc2c1 | 897 | 8.7 | > 10000
CC(=O)Nc1ccc(NC(=O)C(C)(C)CCl)cc1 | > 1000 | 62.1 | > 10500
c1ccc(N=c2sc(-c3ccccc3)cn2CCCCCCn2cc(-c3ccccc3)sc2=Nc2ccccc2)cc1 | 739 | 525 | > 10000
Cc1c2c(n3c(nc4ccccc43)c1C#N)N(CCN(C)C)CC2 | 419 | 638 | > 100000
COc1ccc2c(Cl)c(C(=O)Nc3cc(C)on3)sc2c1Cl | 430 | 316 | > 100000
Cc1ccc2nc(Cl)c3cc(C(=O)Nc4ccc(CN5CCC(C)CC5)cc4)sc3c2c1 | 45.1 | 64.9 | > 75800
O=C(Cc1ccccc1)NC(c1ccc(Cl)cc1)c1ccc2cccnc2c1O (stereo not given) | 209 | 337 | > 100000
CCOC(=O)C1=C(C)NC2=C(C(=O)C(C(=O)OCC)C(c3ccccc3OC)C2)C1c1sccc1C (stereo not given) | 984 | 235 | > 100000
COc1cc(C(=O)Nc2nnc(-c3ccccc3)o2)cc(OC)c1OC | 5180 | > 12500 | > 100000
Cc1ccn2c(NC(C)(C)CC(C)(C)C)c(-c3ccccc3OC(=O)C3CCCCC3)nc2c1 | 654 | 18.7 | > 10000
O=C(CS(=O)(=O)c1ccc(C(F)(F)F)cn1)NNS(=O)(=O)c1ccc(Cl)cc1 | > 1340 | 26.7 | > 10000
CCCN1CCC(N2C[C@@H](NC3CCCCCC3)C[C@H]2C(=O)NCCc2ccc3c(c2)OCO3)CC1 | 1110 | > 833 | > 13000
CC(C)NC(=O)c1ccc2c(c1)N=C(c1ccccc1)N(C1CC1)C2 | > 1680 | 117 | > 10000
CCOC(=O)c1c(NC(=O)c2ccc(S(=O)(=O)N(C)c3ccccc3)cc2)sc2c1CCN(C(=O)OCC)C2 | > 10600 | > 3290 | > 100000
